In US10689367B2, “Triazole pyridyl compounds as agonists of the APJ receptor” (AMGEN INC., priority 2016, dated 2020) one finds EC50 data, which are given here for 18 compounds.

Chain of human APJ receptor (P35414 whole entry): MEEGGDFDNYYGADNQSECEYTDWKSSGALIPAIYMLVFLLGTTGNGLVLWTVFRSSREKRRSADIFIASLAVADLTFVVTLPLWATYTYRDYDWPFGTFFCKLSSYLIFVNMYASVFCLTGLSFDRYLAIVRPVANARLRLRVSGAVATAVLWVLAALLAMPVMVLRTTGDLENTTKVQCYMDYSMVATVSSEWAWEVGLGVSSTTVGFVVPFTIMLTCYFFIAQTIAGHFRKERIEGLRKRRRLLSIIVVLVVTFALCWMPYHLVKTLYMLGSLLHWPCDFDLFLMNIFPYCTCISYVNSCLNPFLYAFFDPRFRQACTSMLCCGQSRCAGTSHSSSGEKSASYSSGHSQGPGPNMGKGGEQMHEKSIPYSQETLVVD

For the assay, the target named is human APJ receptor (Homo sapiens (Human), UniProt P35414). The assay is described as follows: [35S]GTPγS binding assay on membranes from CHO cells stably expressing human APJ receptor. It is filed as biochemical. The settings on record: membranes of CHO cells stably expressing human APJ receptor, read-out: Activity hAPJ SPA EC50 IP. In short, it runs like this:
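[35S]GTPγS binding measured on membranes from CHO cells stably expressing FLAG-tagged human APJ, with GDP, MgCl2 and NaCl levels optimized beforehand. Incubation 90 min at RT, imager read-out; EC50 from non-linear regression, averaged over several independent experiments.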
With `COc1cccc(-c2nnc(NS(=O)(=O)[C@@H](C)[C@H](OC)c3ncc(Cl)cn3)n2[C@@H](C)c2noc(C)n2)n1` (single isomer, unassigned) [Example 244.0, (1R,2S)-1-(5-chloro-2-pyrimidinyl)-1-methoxy-N-(5-(6-methoxy-2-pyridinyl)-4-((1R)-1-(5-methyl-1,2,4-oxadiazol-3-yl)ethyl)-4H-1,2,4-triazol-3-yl)-2-propanesulfonamide or (1R,2S)-1-(5-chloro-2-pyrimidinyl)-1-methoxy-N-(5-(6-methoxy-2-pyridinyl)-4-((1S)-1-(5-methyl-1,2,4-oxadiazol-3-yl)ethyl)-4H-1,2,4-triazol-3-yl)-2-propanesulfonamide], the EC50 (usually the concentration that produces a half-maximal response) was found to be 8.2 nM.
Then `CCC(CC)n1c(NS(=O)(=O)[C@@H](C)[C@H](OC)c2ncc(Cl)cn2)nnc1-c1ccccn1` [Example 47.0], with 5.3 nM; and `COc1cccc(-c2nnc(NS(=O)(=O)[C@@H](C)[C@H](C)c3ncc(Cl)cn3)n2[C@@H](C)c2ncn(C)n2)n1` (single isomer, unassigned) [Example 238.0, (2S,3R)-3-(5-chloro-2-pyrimidinyl)-N-(5-(6-methoxy-2-pyridinyl)-4-((1R)-1-(1-methyl-1H-1,2,4-triazol-3-yl)ethyl)-4H-1,2,4-triazol-3-yl)-2-butanesulfonamide or (2S,3R)-3-(5-chloro-2-pyrimidinyl)-N-(5-(6-methoxy-2-pyridinyl)-4-((1S)-1-(1-methyl-1H-1,2,4-triazol-3-yl)ethyl)-4H-1,2,4-triazol-3-yl)-2-butanesulfonamide], with 6.2 nM.
As to `COc1cccc(-c2nnc(NS(=O)(=O)[C@@H](C)[C@H](C)c3ncc(Cl)cn3)n2[C@H](c2conc2C)C2CC2)n1` (mixture of isomers) [Example 228.0, (2S,3R)-3-(5-chloro-2-pyrimidinyl)-N-(4-((S)-cyclopropyl(3-methyl-1,2-oxazol-4-yl)methyl)-5-(6-methoxy-2-pyridinyl)-4H-1,2,4-triazol-3-yl)-2-butanesulfonamide and (2S,3R)-3-(5-chloro-2-pyrimidinyl)-N-(4-((R)-cyclopropyl(3-methyl-1,2-oxazol-4-yl)methyl)-5-(6-methoxy-2-pyridinyl)-4H-1,2,4-triazol-3-yl)-2-butanesulfonamide], the EC50 stood at 0.88 nM.
Regarding `COc1cccc(-c2nnc(NS(=O)(=O)[C@@H](C)[C@H](OC)c3ncc(Cl)cn3)n2[C@@H](C)c2ncc(C)o2)n1` (single isomer, unassigned) [Example 255.0, (1R,2S)-1-(5-chloro-2-pyrimidinyl)-1-methoxy-N-(5-(6-methoxy-2-pyridinyl)-4-((1S)-1-(5-methyl-1,3-oxazol-2-yl)ethyl)-4H-1,2,4-triazol-3-yl)-2-propanesulfonamide or (1R,2S)-1-(5-chloro-2-pyrimidinyl)-1-methoxy-N-(5-(6-methoxy-2-pyridinyl)-4-((1R)-1-(5-methyl-1,3-oxazol-2-yl)ethyl)-4H-1,2,4-triazol-3-yl)-2-propanesulfonamide], the EC50 worked out at 7.5 nM.
With `COCC1(n2c(NS(=O)(=O)[C@@H](C)[C@H](OC)c3ncc(Cl)cn3)nnc2-c2cccc(OC)n2)CCC1` [Example 50.0], the EC50 was found to be 0.46 nM.
On to `COc1cccc(-c2nnc(NS(=O)(=O)[C@@H](C)[C@H](C)c3ncc(Cl)cn3)n2CC2COC2)n1` [Example 2.0, (2S,3R)-3-(5-chloro-2-pyrimidinyl)-N-(5-(6-methoxy-2-pyridinyl)-4-(3-oxetanylmethyl)-4H-1,2,4-triazol-3-yl)-2-butanesulfonamide], for which the EC50 was greater than 4200 nM.
Take `CO[C@H](c1ncc(Cl)cn1)[C@H](C)S(=O)(=O)Nc1nnc(-c2ccncc2)n1C(C)C` [Example 135.0, (1R,2S)-1-(5-chloro-2-pyrimidinyl)-1-methoxy-N-(4-(2-propanyl)-5-(4-pyridinyl)-4H-1,2,4-triazol-3-yl)-2-propanesulfonamide]: the EC50 was 1900 nM.
Then `COc1cnc([C@@H](OC)[C@H](C)S(=O)(=O)Nc2nnc(-c3cccc(OC)n3)n2[C@H]2CC23CC3)cn1` (single isomer, unassigned) [Example 160.0, (1R,2S)-1-methoxy-1-(5-methoxypyrazin-2-yl)-N-(5-(6-methoxypyridin-2-yl)-4-((S)-spiro[2.2]pentan-1-yl)-4H-1,2,4-triazol-3-yl)propane-2-sulfonamide or (1R,2S)-1-methoxy-1-(5-methoxypyrazin-2-yl)-N-(5-(6-methoxypyridin-2-yl)-4-((R)-spiro[2.2]pentan-1-yl)-4H-1,2,4-triazol-3-y)propane-2-sulfonamide], with 90 nM; and `COc1cccc(-c2nnc(NS(=O)(=O)[C@@H](C)[C@H](OC)c3ncc(Cl)cn3)n2C[C@H]2CCCO2)n1` (single isomer, unassigned) [Example 279.0, (1R,2S)-1-(5-chloropyrimidin-2-yl)-1-methoxy-N-(5-(6-methoxypyridin-2-yl)-4-(((R)-tetrahydrofuran-2-yl)methyl)-4H-1,2,4-triazol-3-yl)propane-2-sulfonamide or (1R,2S)-1-(5-chloropyrimidin-2-yl)-1-methoxy-N-(5-(6-methoxypyridin-2-yl)-4-(((S)-tetrahydrofuran-2-yl)methyl)-4H-1,2,4-triazol-3-yl)propane-2-sulfonamide], with 75 nM; and “(1R,2S)-1-(5-chloropyrimidin-2-yl)-1-methoxy-N-(5-(6-methoxypyridin-2-yl)-4-(((S)-oxetan-2-yl)methyl)-4H-1,2,4-triazol-3-yl)propane-2-sulfonamide or (1R,2S)-1-(5-chloropyrimidin-2-yl)-1-methoxy-N-(5-(6-methoxypyridin-2-yl)-4-(((R)-oxetan-2-yl)methyl)-4H-1,2,4-triazol-3-yl)propane-2-sulfonamide [Example 141.0]”, with 16 nM.
Turning to `CC[C@@H](c1c(C)noc1C)n1c(NS(=O)(=O)[C@@H](C)[C@H](OC)c2cnc(C)cn2)nnc1-c1cccc(OC)n1` (single isomer, unassigned) [Example 222.0, (1R,2S)-N-(4-((1S)-1-(3,5-dimethyl-1,2-oxazol-4-yl)propyl)-5-(6-methoxy-2-pyridinyl)-4H-1,2,4-triazol-3-yl)-1-methoxy-1-(5-methyl-2-pyrazinyl)-2-propanesulfonamide or (1R,2S)-N-(4-((1R)-1-(3,5-dimethyl-1,2-oxazol-4-yl)propyl)-5-(6-methoxy-2-pyridinyl)-4H-1,2,4-triazol-3-yl)-1-methoxy-1-(5-methyl-2-pyrazinyl)-2-propanesulfonamide], the EC50 came out at 58 nM.
For `CC[C@H]([C@@H]1CCCCO1)n1c(NS(=O)(=O)[C@@H](C)[C@H](OC)c2ncc(Cl)cn2)nnc1-c1cccc(OC)n1` (single isomer, unassigned) [Example 328.0], the EC50 came out at 0.064 nM.
For `CO[C@H](c1ncc(Cl)cn1)[C@H](C)S(=O)(=O)Nc1nnc(-c2cncc(C)c2)n1C[C@H]1CCCCO1` (mixture of isomers) [Example 299.0, (1R,2S)-1-(5-chloropyrimidin-2-yl)-1-methoxy-N-(5-(5-methylpyridin-3-yl)-4-(((R)-tetrahydro-2H-pyran-2-yl)methyl)-4H-1,2,4-triazol-3-yl)propane-2-sulfonamide and (1R,2S)-1-(5-chloropyrimidin-2-yl)-1-methoxy-N-(5-(5-methylpyridin-3-yl)-4-(((S)-tetrahydro-2H-pyran-2-yl)methyl)-4H-1,2,4-triazol-3-yl)propane-2-sulfonamide], the EC50 is 120 nM.
With `COc1cccc(-c2nnc(NS(=O)(=O)[C@@H](C)[C@H](OC)c3ncc(Cl)cn3)n2[C@H](C)c2cc(F)cc(F)c2)n1` (single isomer, unassigned) [Example 341.0, (1R,2S)-1-(5-chloropyrimidin-2-yl)-N-(4-((R)-1-(3,5-difluorophenyl)ethyl)-5-(6-methoxypyridin-2-yl)-4H-1,2,4-triazol-3-yl)-1-methoxypropane-2-sulfonamide or (1R,2S)-1-(5-chloropyrimidin-2-yl)-N-(4-((S)-1-(3,5-difluorophenyl)ethyl)-5-(6-methoxypyridin-2-yl)-4H-1,2,4-triazol-3-yl)-1-methoxypropane-2-sulfonamide] the figure was 0.13 nM; with `COc1cccc(-c2nnc(NS(=O)(=O)[C@@H](C)[C@H](OC)c3ncc(Cl)cn3)n2C[C@@H]2CCC[C@H](C)O2)n1` (single isomer, unassigned) [Example 307.0], 8.8 nM; with `CC[C@@H](c1c(C)noc1C)n1c(NS(=O)(=O)[C@@H](C)[C@H](OC)c2ncc(Cl)cn2)nnc1-c1cccc(OC)n1` (single isomer, unassigned) [Example 219.0, (1R,2S)-1-(5-chloro-2-pyrimidinyl)-N-(4-((1R)-1-(3,5-dimethyl-1,2-oxazol-4-yl)propyl)-5-(6-methoxy-2-pyridinyl)-4H-1,2,4-triazol-3-yl)-1-methoxy-2-propanesulfonamide or (1R,2S)-1-(5-chloro-2-pyrimidinyl)-N-(4-((1S)-1-(3,5-dimethyl-1,2-oxazol-4-yl)propyl)-5-(6-methoxy-2-pyridinyl)-4H-1,2,4-triazol-3-yl)-1-methoxy-2-propanesulfonamide], 1.8 nM.
On to `COc1cccc(-c2nnc(NS(=O)(=O)[C@@H](C)[C@H](C)c3ncc(Cl)cn3)n2[C@@H](C)c2ccno2)n1` (mixture of isomers) [Example 201.0, (2S,3R)-3-(5-chloro-2-pyrimidinyl)-N-(5-(6-methoxy-2-pyridinyl)-4-((1R)-1-(1,2-oxazol-5-yl)ethyl)-4H-1,2,4-triazol-3-yl)-2-butanesulfonamide and (2S,3R)-3-(5-chloro-2-pyrimidinyl)-N-(5-(6-methoxy-2-pyridinyl)-4-((1S)-1-(1,2-oxazol-5-yl)ethyl)-4H-1,2,4-triazol-3-yl)-2-butanesulfonamide], for which the EC50 worked out at 3.5 nM.
